experiment: Human HepG2 cell viability assay in 384 well format; type: toxicity, cell-based; parameters: dose 125 nL, time 70.5 hour; cytotoxicity at 70.5 h: concentration not given beside the values; settings: HepG2 cells, read-out: Inhibition

Row | SMILES | cytotoxicity at 70.5 h [%]
1 | CN(C)C(=O)CN1C[C@@H]2CC[C@H](C1)N(C(=O)CCn1cncn1)C2 | -12.6
2 | CC1CN(C)c2ccccc2CN1C(=O)c1cc[nH]c(=O)c1 (configuration not stated) | -0.482
3 | CC1COc2ccccc2N1C(=O)CCc1cscn1 (configuration not stated) | 3.54
4 | CCNc1cc2c(nn1)CCN(C(=O)c1ccc(-n3cccn3)nc1)C2 | -15.9
5 | O=S(=O)(CCNCc1cc(O)c2cc(F)ccc2n1)N1CCCC1 | 17.6
6 | O=S(=O)(c1ccccc1F)N1CCC(Oc2cccnn2)CC1 | -7.73
7 | Cc1cc2nc(CO[C@H]3CN(C4CCN(C)CC4)C[C@H]3F)[nH]c2cc1C | -4.5
8 | Cc1cnc(NCCCN2CCc3ccccc32)nc1 | -3.85
9 | Cc1c[nH]nc1C1CCN(C(=O)C2CCCC2)C1 (configuration not stated) | -5.07
10 | CC(C)COCC1CN(Cc2cnn(C)c2)Cc2ncn(C)c21 (configuration not stated) | -7.87
11 | Cc1ccccc1C1(C(=O)NCCN2CCCC2)CCOCC1 | -13.9
12 | COc1ccc(-n2ccc(C(=O)NCCN3CCCCC3C)n2)cc1 (configuration not stated) | 7.59
13 | CC[C@@H]1N(Cc2cccnc2)CCC[C@]12CCC(=O)N2C | -12.1
14 | O=C(NCC1CCOC1)c1csc(Cc2ccccc2)n1 (configuration not stated) | 19.4
15 | CCn1ncc(CN2C[C@@H]3CCCN3C[C@@H]2CCSC)c1C | -6.31
16 | O=S1(=O)NC2(CCCN(Cc3ccc(Cl)cc3)C2)COc2ccccc21 (configuration not stated) | 22.5
17 | O=C(CC1CC1)N1CCCC2(CCC(=O)N2CC2CC2)CC1 (configuration not stated) | -8.2
18 | Cc1cc(C)c(CNC(=O)N(C)Cc2ccc(F)cc2)c(=O)[nH]1 | 18.3
19 | O=c1cc(N2CCCCC2)cnn1Cc1noc(C2CCCO2)n1 (configuration not stated) | -10.8

Row | SMILES | cytotoxicity at 70.5 h [%]
20 | Cc1ccc(CN2CCC3(C2)C(=O)N(CC(N)=O)c2ccccc23)s1 (configuration not stated) | -3.49
21 | CN1CC[C@H](N(Cc2ccccc2)CC2CC2)C[C@H](O)C1 | 9.84
22 | C/C(NC(=O)c1ccccn1)=C1\C(=O)C[C@@H]2[C@H]1C2(C)C | -2.07
23 | O=C(Nc1cccc(CNCc2cccs2)c1)C1CCCC1 | -15
24 | CN(C(=O)CCNC(=O)C1COc2ccccc21)c1ccccc1 (configuration not stated) | -6.34
25 | COc1cc(Br)cc(CNC2CCCNC2=O)c1O (configuration not stated) | 2.96
26 | COCCCN(Cc1ccccn1)S(=O)(=O)Cc1ccccc1 | -18.4
27 | Cc1ccc(F)cc1S(=O)(=O)Nc1ccc2c(C(=O)O)c[nH]c2c1 | 1.03
28 | CN(Cc1nnc2n1CCC2)C(=O)c1ccc2c(c1)OCCCO2 | 18.9
29 | Cc1ccoc1C(=O)N1C[C@H](OCC2CC2)[C@H]2OCCC[C@H]21 | -0.347
30 | CCc1nc(C)c(CC(=O)N2CCC3(CC2)OCCCC3O)c(=O)[nH]1 (configuration not stated) | -6.44
31 | Cc1cnc(NC(=O)c2cccc(CN(C)Cc3snnc3C)c2)s1 | -4.01
32 | COc1cccc2c1OCC(C(=O)N1CCC(N3CCSCC3)CC1)C2 (configuration not stated) | 4.8
33 | COc1ccccc1-n1nc(-c2ccco2)n(CC(N)=O)c1=O | -7.68
34 | O=C1NC2(CCN(C(=O)N3CCOCC3)CC2)CC1c1cccnc1 (configuration not stated) | 3.42
35 | CSc1nc(C2CC2)nc(C)c1C(=O)NCc1cc(C)on1 | -0.104
36 | Cc1nn2c(N3CCC(O)CC3)cc(-c3ccccc3)nc2c1C | -3.29
37 | O=S(=O)(c1ccc(-c2nc3c([nH]2)CCNC3)cc1)N1CCCC1 | -11.8
38 | COc1ccnc(NCc2ccccc2Cn2cccn2)n1 | -1.62

Row | SMILES | cytotoxicity at 70.5 h [%]
39 | CC(C)N1CCCC(C(=O)N2CCN(c3cnn(C)c(=O)c3)CC2)C1 (configuration not stated) | -7.17
40 | Cc1nc([C@@H]2C[C@@H]3CCN(C(=O)Cc4ccsc4)C[C@H]3O2)no1 | -13.8
41 | CCN1Cc2ccccc2CC2(CCN(C)CC2)C1=O | -7.96
42 | CCC1CN(C(=O)c2ccc(O)c(C)c2)CCN1C(C)C (configuration not stated) | -5.22
43 | CC(C)(C)CC(=O)NC[C@H]1OC[C@@H](NC2CCC(F)(F)CC2)[C@@H]1O | -5.07
44 | CCNC(=O)[C@@H]1C[C@H](N)CN1c1cc(C(F)(F)F)nc(N2CCCC2)n1 | 3.41
45 | FC(F)(F)c1ccnc(N2CCCN(C3CCOCC3)CC2)c1 | -11.5
46 | O=C(NCCC1CN(C2CCCC2)CCO1)c1cc(=O)[nH]c(=O)[nH]1 (configuration not stated) | -11.6
47 | O=C(NCC1OCCc2cn(CC3CC3)nc21)c1ccsc1 (configuration not stated) | 47.4
48 | Cc1ccc(CNC[C@H]2Cn3cc(-c4ccccc4)nc3CO2)cc1 | -4.13
49 | COc1ncc(CN(CCN(C)C)Cc2ccc(C)s2)cn1 | 12.8
50 | Cc1cc(Br)ccc1NCC(=O)Nc1cc(C(C)(C)C)no1 | -4.88
51 | CC(=O)N1CCC(C(=O)NC(C)c2cccc(OC(F)F)c2)CC1 (configuration not stated) | 1.57
52 | CCC1CN(C(=O)CN2CCN(c3nccc(OC)n3)CC2)CCO1 (configuration not stated) | -12.3
53 | Cc1ccsc1-c1nccn1CCN1CCCOC1=O | -9.87
54 | CCc1ccccc1OCCN(C)C(=O)CCN1CCCCO1 | -7.24
55 | Cc1cc(C)n(CC2CCCN2C(=O)c2c(C)noc2C)n1 (configuration not stated) | 18.5
56 | CN(C(=O)CCc1ccsc1)S(C)(=O)=O | 6.34
57 | NC(=O)C1(Cc2ccc(-c3ccccc3)cc2)CCCNC1 (configuration not stated) | -1.37
